Results published in US9994905B2, “Methods for the diagnosis and treatment of pulmonary fibrosis in subjects with hermansky pudlak syndrome” (BROWN UNIVERSITY, priority 2014, dated 2018).
Like-named read-outs stand apart in the source and are kept apart here.

How the values were obtained:
[1] = system: Primary Type II alveolar epithelial cells; experiment: Bleomycin-induced apoptosis (TUNEL) in primary Type II alveolar epithelial cells; assay type: cell-based, mouse; settings: 500 ng/ml pre-treatment, 100 μg/ml bleomycin (FIG. 5A)
Protocol: End labeling of exposed 3′-OH ends of DNA fragments in paraffin-embedded tissue was undertaken with the TUNEL in situ cell death detection kit AP (Roche Diagnostics). SPC co-staining was performed using a goat anti-mouse SPC primary antibody (Santa Cruz) and Alexa Fluor 594 secondary antibody. After staining, 8-10 random pictures were obtained from each lung, and a minimum of 300 cells were visually evaluated in each section. The labeled cells were expressed as a percentage of total nuclei.
WT and pale ear mouse lungs were digested with collagenase and DNase I. The resulting suspension was filtered through Falcon cell strainers, and the cells were negatively selected with anti-CD16/CD32 antibodies. Cells were maintained in BEGM+5% charcoal-stripped FBS and 10 ng/ml KGF. A549 cells were obtained from the American Type Culture Collection (ATCC, Manassas, Va.) and maintained in DMEM+2 mM glutamine+10% FBS. Primary Type II Cells were pre-treated with 500 ng/ml recombinant CHI3L1, transfected with IL-13Rα2 construct, and stimulated with 100 μg/ml bleomycin. In A549 cells, HPS1, HPS4, Rab32, and Rab38 siRNA were co-transfected with IL-13Rα2 construct, and stimulated with 100 μg/ml bleomycin. Cells were cytospun onto slides. Immunofluorescence and/or TUNEL staining were performed as previously described.

CRTH2 = CRTH2 (Mus musculus, UniProt Q9Z2J6); settings: intratracheal bleomycin, 30 mg/kg IP every other day, Day 5 to Day 14; for bleomycin-induced collagen accumulation: Sircol on Day 14 (FIG. 6D)
Protocol: Sex-matched, 8-wk-old wild-type (WT), pale ear, CHI3L1^−/−, and CHI3L1Tgmice (≥5 mice/group) were exposed to a single bleomycin injection (1.25 U/kg; Teva Parenteral Medicines, Irvine, Calif.) via intratracheal administration. Mice were sacrificed and evaluated at Day 7 and Day 14 to examine apoptosis and fibrosis, respectively.
Animals were anesthetized, median sternotomy was performed, and right heart perfusion completed with calcium and magnesium-free PBS. The heart and lungs were then removed. The right lung was frozen in liquid nitrogen and stored at −80° C. until used. Collagen content was determined by quantifying total soluble collagen using the Sircol Collagen Assay kit (Biocolor, Accurate Chemical & Scientific Co., Westbury, N.Y.) according to the manufacturer's instructions.
Sex-matched, 8-wk-old wild-type (WT), pale ear, and CHI3L1 Tg mice (≥5 mice/group) were exposed to a single bleomycin injection (1.25 U/kg; Teva Parenteral Medicines, Irvine, Calif.) via intratracheal administration. Mice were treated with 30 mg/kg CAY10471 (Cayman Chemical) (IP, every other day) or DMSO control from Day 5 to Day 14.

Sequence of CRTH2 (Q9Z2J6 whole entry): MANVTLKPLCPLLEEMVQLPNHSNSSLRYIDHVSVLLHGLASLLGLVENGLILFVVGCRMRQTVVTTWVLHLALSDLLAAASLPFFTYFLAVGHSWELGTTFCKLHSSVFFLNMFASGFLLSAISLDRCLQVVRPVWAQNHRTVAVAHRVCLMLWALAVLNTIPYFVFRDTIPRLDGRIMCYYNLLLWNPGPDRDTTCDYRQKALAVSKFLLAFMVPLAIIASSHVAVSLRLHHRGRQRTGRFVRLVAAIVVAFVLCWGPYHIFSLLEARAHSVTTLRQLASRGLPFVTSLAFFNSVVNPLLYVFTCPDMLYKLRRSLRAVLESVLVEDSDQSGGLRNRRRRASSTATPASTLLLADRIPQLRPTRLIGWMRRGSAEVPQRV

Compound | bleomycin-induced apoptosis (TUNEL-positive cells) ([1]; cells from WT mice) | bleomycin-induced apoptosis (TUNEL-positive cells) ([1]; cells from pale ear mice) | exaggerated fibrosis caused by CHI3L1 transgene activation during fibroproliferative repair (CRTH2; CHI3L1 Tg mice, Sircol on Day 14 (FIG. 6E)) | bleomycin-induced collagen accumulation (CRTH2; HPS1 null (pale ear) mice) | bleomycin-induced collagen accumulation (CRTH2; WT mice)
Recombinant CHI3L1: recombinant chitinase 3-like-1 protein | powerful inhibitor | did not decrease |  |  | 
CN(C1CCc2c(c3ccccc3n2CC(=O)O)C1)S(=O)(=O)c1ccc(F)cc1 (centres unmarked) [CAY10471] |  |  | abrogated | decreased | decreased
